In PubChem BioAssay (NCI):
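Protocol summary: plate cells (96-well), add compound at 5 concentrations, incubate 48 h, interpolate endpoints linearly. Definition used: TGI = concentration required for complete inhibition of growth.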 *1 amine or outer side, *2 acyl side, *3 side chain or, on linkers, in order; H or OH if unused. Where a SMILES comes first, the peptide text is derived from it. The star is where a group is joined. γGlu = O=C(O)[CH](CCC(=O)[*:2])N[*:1]; NHOH = ON*

Assays:
Test in all cases: growth of human tumour cells (NCI), 48 h
SNB-75 CNS = test system: SNB-75 CNS
UACC-257 melanoma = test system: UACC-257 melanoma
DU-145 prostate = test system: DU-145 prostate
SW-620 colon = test system: SW-620 colon
SF-539 CNS = test system: SF-539 CNS
U251 CNS = test system: U251 CNS
BT-549 breast = test system: BT-549 breast
NCI-H522 lung = test system: NCI-H522 lung
OVCAR-3 ovarian = test system: OVCAR-3 ovarian
HL-60(TB) leukemia = test system: HL-60(TB) leukemia
A549 NSCLC = test system: A549 NSCLC
K-562 leukemia = test system: K-562 leukemia
TK-10 renal = test system: TK-10 renal
MDA-MB-231 breast = test system: MDA-MB-231 breast
SK-MEL-2 melanoma = test system: SK-MEL-2 melanoma
M14 melanoma = test system: M14 melanoma
MDA-MB-435 = test system: MDA-MB-435
OVCAR-5 ovarian = test system: OVCAR-5 ovarian
HCT-15 colon = test system: HCT-15 colon
NCI-H226 lung = test system: NCI-H226 lung

COC(=O)/C=C1\CCCN1CCc1cc2c(cc1CC#N)OCO2
TGI (SNB-75 CNS): 66.8 µM
TGI (UACC-257 melanoma): > 100 µM
TGI (DU-145 prostate): > 100 µM
TGI (SW-620 colon): > 100 µM
TGI (SF-539 CNS): > 100 µM
TGI (U251 CNS): > 100 µM
TGI (BT-549 breast): > 100 µM
TGI (NCI-H522 lung): > 100 µM
TGI (OVCAR-3 ovarian): 69.1 µM
TGI (HL-60(TB) leukemia): > 100 µM
TGI (A549 NSCLC): > 100 µM
TGI (K-562 leukemia): > 100 µM
TGI (TK-10 renal): > 100 µM
TGI (MDA-MB-231 breast): > 100 µM
TGI (SK-MEL-2 melanoma): > 100 µM
TGI (M14 melanoma): > 100 µM
TGI (MDA-MB-435): 45.1 µM
TGI (OVCAR-5 ovarian): > 100 µM
TGI (HCT-15 colon): > 100 µM
TGI (NCI-H226 lung): > 100 µM

O=C(NNC(=O)c1ccccc1O)c1ccco1
TGI (SNB-75 CNS): > 100 µM
TGI (UACC-257 melanoma): > 100 µM
TGI (DU-145 prostate): > 100 µM
TGI (SW-620 colon): > 100 µM
TGI (SF-539 CNS): > 100 µM
TGI (U251 CNS): > 100 µM
TGI (BT-549 breast): > 100 µM
TGI (NCI-H522 lung): > 100 µM
TGI (OVCAR-3 ovarian): > 100 µM
TGI (HL-60(TB) leukemia): > 100 µM
TGI (A549 NSCLC): > 100 µM
TGI (K-562 leukemia): > 100 µM
TGI (TK-10 renal): > 100 µM
TGI (MDA-MB-231 breast): > 100 µM
TGI (SK-MEL-2 melanoma): > 100 µM
TGI (M14 melanoma): > 100 µM
TGI (MDA-MB-435): > 100 µM
TGI (OVCAR-5 ovarian): > 100 µM
TGI (HCT-15 colon): > 100 µM
TGI (NCI-H226 lung): > 100 µM

Nc1nnc2oc3ccc4ccccc4c3cc1-2
TGI (SNB-75 CNS): 81 µM
TGI (UACC-257 melanoma): > 100 µM
TGI (DU-145 prostate): > 100 µM
TGI (SW-620 colon): > 100 µM
TGI (U251 CNS): > 100 µM
TGI (BT-549 breast): > 100 µM
TGI (NCI-H522 lung): > 100 µM
TGI (OVCAR-3 ovarian): > 100 µM
TGI (HL-60(TB) leukemia): 67.9 µM
TGI (A549 NSCLC): > 100 µM
TGI (K-562 leukemia): > 100 µM
TGI (TK-10 renal): > 100 µM
TGI (MDA-MB-231 breast): 97.1 µM
TGI (SK-MEL-2 melanoma): 72.5 µM
TGI (M14 melanoma): > 100 µM
TGI (MDA-MB-435): > 100 µM
TGI (OVCAR-5 ovarian): > 100 µM
TGI (HCT-15 colon): > 100 µM
TGI (NCI-H226 lung): 80.7 µM

CNN1C(=O)c2c(C)c(C)c(C#N)c(N)c2C1=O
TGI (SNB-75 CNS): > 100 µM
TGI (UACC-257 melanoma): > 100 µM
TGI (DU-145 prostate): > 100 µM
TGI (SW-620 colon): > 100 µM
TGI (SF-539 CNS): > 100 µM
TGI (U251 CNS): > 100 µM
TGI (BT-549 breast): > 100 µM
TGI (NCI-H522 lung): > 100 µM
TGI (OVCAR-3 ovarian): > 100 µM
TGI (HL-60(TB) leukemia): > 100 µM
TGI (A549 NSCLC): > 100 µM
TGI (K-562 leukemia): > 100 µM
TGI (TK-10 renal): > 100 µM
TGI (MDA-MB-231 breast): > 100 µM
TGI (SK-MEL-2 melanoma): > 100 µM
TGI (M14 melanoma): > 100 µM
TGI (MDA-MB-435): > 100 µM
TGI (OVCAR-5 ovarian): > 100 µM
TGI (HCT-15 colon): > 100 µM
TGI (NCI-H226 lung): > 100 µM

CCCCCC1=C2C(c3ccc(OC)cc3)=C(N)C(c3ccc(OC)cc3)=C3NC(=O)C(C=C1)C32 (configuration not stated)
TGI (SNB-75 CNS): > 100 µM
TGI (UACC-257 melanoma): > 100 µM
TGI (DU-145 prostate): > 100 µM
TGI (SW-620 colon): > 100 µM
TGI (U251 CNS): > 100 µM
TGI (BT-549 breast): > 100 µM
TGI (NCI-H522 lung): 68 µM
TGI (OVCAR-3 ovarian): > 100 µM
TGI (HL-60(TB) leukemia): > 100 µM
TGI (A549 NSCLC): > 100 µM
TGI (K-562 leukemia): > 100 µM
TGI (TK-10 renal): > 100 µM
TGI (MDA-MB-231 breast): > 100 µM
TGI (SK-MEL-2 melanoma): > 100 µM
TGI (M14 melanoma): > 100 µM
TGI (MDA-MB-435): > 100 µM
TGI (OVCAR-5 ovarian): > 100 µM
TGI (HCT-15 colon): > 100 µM
TGI (NCI-H226 lung): 96.8 µM

O=C(CSc1nc2ccc(I)cc2c(=O)n1Cc1ccccc1)NN1C(=O)c2ccccc2C1=O
TGI (SNB-75 CNS): 21.8 µM
TGI (UACC-257 melanoma): 51.4 µM
TGI (DU-145 prostate): 95.1 µM
TGI (SW-620 colon): > 100 µM
TGI (SF-539 CNS): 15.5 µM
TGI (U251 CNS): 30.1 µM
TGI (BT-549 breast): 36.2 µM
TGI (NCI-H522 lung): 34.1 µM
TGI (OVCAR-3 ovarian): 28.6 µM
TGI (HL-60(TB) leukemia): 33.5 µM
TGI (A549 NSCLC): 72.5 µM
TGI (K-562 leukemia): > 100 µM
TGI (TK-10 renal): 30.4 µM
TGI (MDA-MB-231 breast): 32 µM
TGI (SK-MEL-2 melanoma): 28.4 µM
TGI (M14 melanoma): > 100 µM
TGI (MDA-MB-435): > 100 µM
TGI (OVCAR-5 ovarian): 86.7 µM
TGI (HCT-15 colon): > 100 µM
TGI (NCI-H226 lung): 23.5 µM

CC(C)(C)OC(=O)NC(CS(=O)(=O)O)C(=O)O (configuration not stated)
TGI (SNB-75 CNS): > 100 µM
TGI (UACC-257 melanoma): > 100 µM
TGI (DU-145 prostate): > 100 µM
TGI (SW-620 colon): > 100 µM
TGI (SF-539 CNS): > 100 µM
TGI (U251 CNS): > 100 µM
TGI (BT-549 breast): > 100 µM
TGI (NCI-H522 lung): > 100 µM
TGI (OVCAR-3 ovarian): > 100 µM
TGI (HL-60(TB) leukemia): > 100 µM
TGI (A549 NSCLC): > 100 µM
TGI (K-562 leukemia): > 100 µM
TGI (TK-10 renal): > 100 µM
TGI (MDA-MB-231 breast): > 100 µM
TGI (SK-MEL-2 melanoma): > 100 µM
TGI (M14 melanoma): > 100 µM
TGI (MDA-MB-435): > 100 µM
TGI (OVCAR-5 ovarian): > 100 µM
TGI (HCT-15 colon): > 100 µM
TGI (NCI-H226 lung): > 100 µM

CCOC(=O)CNC(=O)C(CCC(=O)NO)NC(=O)CCC(N)C(=O)O (configuration not stated) (γGlu-Glu(NHOH)-Gly-OEt; configuration not given here)
TGI (SNB-75 CNS): > 100 µM
TGI (UACC-257 melanoma): > 100 µM
TGI (DU-145 prostate): > 100 µM
TGI (SW-620 colon): > 100 µM
TGI (SF-539 CNS): > 100 µM
TGI (U251 CNS): > 100 µM
TGI (BT-549 breast): > 100 µM
TGI (NCI-H522 lung): > 100 µM
TGI (OVCAR-3 ovarian): > 100 µM
TGI (HL-60(TB) leukemia): > 100 µM
TGI (A549 NSCLC): > 100 µM
TGI (K-562 leukemia): > 100 µM
TGI (TK-10 renal): > 100 µM
TGI (MDA-MB-231 breast): > 100 µM
TGI (SK-MEL-2 melanoma): > 100 µM
TGI (M14 melanoma): > 100 µM
TGI (MDA-MB-435): > 100 µM
TGI (OVCAR-5 ovarian): > 100 µM
TGI (HCT-15 colon): > 100 µM
TGI (NCI-H226 lung): > 100 µM

COCOc1c(C(OCOC)c2cnc(Sc3ccccc3)n2C)ccc(OC)c1OC (configuration not stated)
TGI (SNB-75 CNS): > 100 µM
TGI (UACC-257 melanoma): > 100 µM
TGI (DU-145 prostate): > 100 µM
TGI (SW-620 colon): > 100 µM
TGI (SF-539 CNS): > 100 µM
TGI (U251 CNS): > 100 µM
TGI (BT-549 breast): > 100 µM
TGI (NCI-H522 lung): > 100 µM
TGI (OVCAR-3 ovarian): > 100 µM
TGI (HL-60(TB) leukemia): > 100 µM
TGI (A549 NSCLC): > 100 µM
TGI (K-562 leukemia): > 100 µM
TGI (TK-10 renal): > 100 µM
TGI (MDA-MB-231 breast): > 100 µM
TGI (SK-MEL-2 melanoma): > 100 µM
TGI (MDA-MB-435): > 100 µM
TGI (OVCAR-5 ovarian): > 100 µM
TGI (HCT-15 colon): > 100 µM
TGI (NCI-H226 lung): > 100 µM

O=c1c2cc(S(=O)(=O)Nc3ccc(Cl)cc3Cl)ccc2ncn1NS(=O)(=O)c1cccc2ccccc12
TGI (SNB-75 CNS): > 100 µM
TGI (UACC-257 melanoma): > 100 µM
TGI (DU-145 prostate): > 100 µM
TGI (SW-620 colon): > 100 µM
TGI (SF-539 CNS): > 100 µM
TGI (U251 CNS): > 100 µM
TGI (BT-549 breast): 80.6 µM
TGI (NCI-H522 lung): > 100 µM
TGI (OVCAR-3 ovarian): > 100 µM
TGI (HL-60(TB) leukemia): 37.5 µM
TGI (A549 NSCLC): > 100 µM
TGI (K-562 leukemia): > 100 µM
TGI (TK-10 renal): > 100 µM
TGI (MDA-MB-231 breast): > 100 µM
TGI (SK-MEL-2 melanoma): > 100 µM
TGI (M14 melanoma): > 100 µM
TGI (MDA-MB-435): > 100 µM
TGI (OVCAR-5 ovarian): > 100 µM
TGI (HCT-15 colon): > 100 µM
TGI (NCI-H226 lung): > 100 µM

CC(=O)Oc1ccc(/C=C/C(=O)OCCOC(=O)/C=C/c2ccc(OC(C)=O)c(OC(C)=O)c2)cc1OC(C)=O
TGI (SNB-75 CNS): 22.5 µM
TGI (UACC-257 melanoma): 22.6 µM
TGI (DU-145 prostate): 28.6 µM
TGI (SW-620 colon): 49 µM
TGI (SF-539 CNS): 13.4 µM
TGI (U251 CNS): 22.1 µM
TGI (BT-549 breast): 53 µM
TGI (NCI-H522 lung): 17 µM
TGI (OVCAR-3 ovarian): > 28.6 µM
TGI (HL-60(TB) leukemia): > 44.6 µM
TGI (A549 NSCLC): 50.3 µM
TGI (K-562 leukemia): > 100 µM
TGI (TK-10 renal): 37.2 µM
TGI (MDA-MB-231 breast): 52.4 µM
TGI (SK-MEL-2 melanoma): 55.6 µM
TGI (M14 melanoma): 25.3 µM
TGI (MDA-MB-435): 28 µM
TGI (OVCAR-5 ovarian): > 60.1 µM
TGI (HCT-15 colon): 33.8 µM
TGI (NCI-H226 lung): 41.5 µM
